The values that follow come from patent US20110033393A1, “Hydrazone Compounds and Their Use” (priority 2009, published 2011).

Each structure is given as a SMILES string. pIC50: −log10 of the molar value. Bounds are passed on as bounds.

The assay concerns the target T1, human TRPM5 ion channel (Homo sapiens, UniProt Q9NZQ8).
T1 sequence (Q9NZQ8 1-1165): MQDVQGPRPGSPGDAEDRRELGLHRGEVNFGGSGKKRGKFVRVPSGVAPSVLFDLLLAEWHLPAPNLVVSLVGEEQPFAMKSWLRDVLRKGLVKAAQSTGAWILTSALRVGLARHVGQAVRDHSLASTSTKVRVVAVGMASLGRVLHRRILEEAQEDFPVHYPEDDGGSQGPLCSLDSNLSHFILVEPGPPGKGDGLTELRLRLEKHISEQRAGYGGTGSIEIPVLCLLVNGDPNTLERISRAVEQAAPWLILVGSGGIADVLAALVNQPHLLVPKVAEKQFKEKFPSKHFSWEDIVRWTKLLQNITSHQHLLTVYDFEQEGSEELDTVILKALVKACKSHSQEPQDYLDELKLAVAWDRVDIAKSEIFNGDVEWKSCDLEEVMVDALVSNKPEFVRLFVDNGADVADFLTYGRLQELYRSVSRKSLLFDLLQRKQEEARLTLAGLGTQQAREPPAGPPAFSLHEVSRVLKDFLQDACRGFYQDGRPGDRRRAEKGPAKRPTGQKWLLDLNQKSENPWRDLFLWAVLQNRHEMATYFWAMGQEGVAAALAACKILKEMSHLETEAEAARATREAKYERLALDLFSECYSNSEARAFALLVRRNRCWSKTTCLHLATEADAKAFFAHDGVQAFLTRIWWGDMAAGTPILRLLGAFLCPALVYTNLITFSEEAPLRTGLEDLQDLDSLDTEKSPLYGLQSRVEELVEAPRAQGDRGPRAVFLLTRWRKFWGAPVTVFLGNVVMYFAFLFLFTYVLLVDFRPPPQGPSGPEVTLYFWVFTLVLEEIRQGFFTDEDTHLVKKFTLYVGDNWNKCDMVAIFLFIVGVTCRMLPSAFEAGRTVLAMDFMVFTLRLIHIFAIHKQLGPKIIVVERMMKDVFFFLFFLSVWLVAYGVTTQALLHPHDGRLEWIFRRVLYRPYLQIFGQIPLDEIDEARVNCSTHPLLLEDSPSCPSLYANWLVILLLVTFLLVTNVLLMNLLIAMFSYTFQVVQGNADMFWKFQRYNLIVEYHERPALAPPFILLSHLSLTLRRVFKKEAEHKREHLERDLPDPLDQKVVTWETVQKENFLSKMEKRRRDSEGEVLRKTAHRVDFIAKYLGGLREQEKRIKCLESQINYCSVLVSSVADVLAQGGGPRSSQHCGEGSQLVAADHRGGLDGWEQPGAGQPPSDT
The experiment in a line: FLIPR-based assay for membrane potential and calcium mobilization (TRPM5 inhibiting activity). The format is cell-based. The settings on record: live cells, 30° C., read-out: hTrpM5 IC50. The protocol: The activity of compounds of the present invention on human TRPM5 ion channel was measured using the FLIPR-based (fluorescent imaging plate reader) assay for membrane potential and calcium mobilization described in U.S. Patent Application Publication No. 2008/0249189 A1 in live cells, wherein the assay is performed at 30° C. Determinations of affinity and efficacy were derived from measurements of TRPM5 activity over a range of compound concentrations. The concentration range was achieved by 10 serial dilutions (either 2-fold or 3-fold decrements) from a maximum concentration of no greater that 100 μM. Curver fitting was performed on the resulting data to yield concentration-effect functions, from which the half-maximal inhibitory concentration (IC50) was derived for all the tested compounds. The IC50 values were considered to be accurate reflections of affinity between the compounds and TRPM5.
Representative compounds of the present invention have been tested in the FLIPR assay for TRPM5 inhibiting activity, which is described in detail above.
On the technique in general: Calcium assays in cells follow changes in intracellular calcium, usually with a dye or a luminescent sensor.
One may read the pIC50 as the negative decadic logarithm of the IC50, by convention in mol/L. As for `Cc1cn(CCC(=O)N/N=C/c2cc(C)c3ncccc3c2)c2ccccc12` [Example 3, 3-(3-Methyl-1H-indol-1-yl)-N′-((8-methylquinolin-6-yl)methylene)propanehydrazide], the pIC50 is 7.52.

Consider `COc1ccnc2ccc(/C=N/NC(=O)CCn3cc(C)c4ccccc43)cc12` [Example 63, N′-((4-methoxyquinolin-6-yl)methylene)-3-(3-methyl-1H-indol-1-yl)propanehydrazide], for which the negative-log IC50 (pIC50) is 6.92.

Take `COc1ccc(/C=N/NC(=O)CCn2cnc3c(C)cccc32)cc1OC` [Example 17, N′-(3,4-Dimethoxybenzylidene)-3-(4-methyl-1H-benzo[d]imidazol-1-yl)propanehydrazide]: the negative-log IC50 (pIC50) is 5.62.

On to `COc1ccc(/C=N/NC(=O)CCn2cc(C)c3ccccc32)cc1OC` [Example 56, N′-(3,4-dimethoxybenzylidene)-3-(3-methyl-1H-indol-1-yl)propanehydrazide], for which the pIC50 is 7.77.

`COc1ccc(/C=N/NC(=O)CCn2cc(C)c3cccnc32)cc1OC` [Example 14, N′-(3,4-Dimethoxybenzylidene)-3-(3-methyl-1H-pyrrolo[2,3-b]pyridin-1-yl)propanehydrazide]: the negative logarithm of the IC50 (pIC50) is 6.17.

Take `COc1cc(/C=N/NC(=O)CCn2cc(C)c3ccccc32)ccc1OCCCO` [Example 4, N′-(4-(3-Hydroxypropoxy)-3-methoxybenzylidene)-3-(3-methyl-1H-indol-1-yl)propanehydrazide]: the negative logarithm of the IC50 (pIC50) was 6.30.

As to `COc1cc(/C=N/NC(=O)CCn2cc(C)c3c(C)cccc32)ccc1OCc1cccnn1` [Example 19, 3-(3,4-Dimethyl-1H-indol-1-yl)-N′-(3-methoxy-4-(pyridazin-3-ylmethoxy)benzylidene)propanehydrazide], the pIC50 was 6.74.

Regarding `Cc1cc(/C=N/NC(=O)CCn2cc(C)c3c(C)cccc32)cc2cccnc12` [Example 64, 3-(3,4-dimethyl-1H-indol-1-yl)-N′-((8-methylquinolin-6-yl)-methylene)propanehydrazide], the negative logarithm of the IC50 (pIC50) is 8.30.

For the compound `Cc1cccc2c1c(C)cn2CCC(=O)N/N=C/c1ccc2c(c1)OCCCO2` [Example 45], the pIC50 was 7.62.

As for `Cc1cc(/C=N/NC(=O)CSc2cccc(Cl)c2)cc2cccnc12` [Example 35, 2-(3-Chlorophenylthio)-N′-((8-methylquinolin-6-yl)methylene)acetohydrazide], the negative logarithm of the IC50 (pIC50) was 6.08.

Turning to `COc1cc(/C=N/NC(=O)CCn2cc(C)c3c(C)cccc32)ccc1OCc1cccnc1` [Example 16, 3-(3,4-Dimethyl-1H-indol-1-yl)-N′-(3-methoxy-4-(pyridin-3-ylmethoxy)benzylidene)propanehydrazide], the negative-log IC50 (pIC50) is 7.28.

As for `Cc1cn(CCC(=O)N/N=C/c2ccc3cccnc3c2)c2ccccc12` [Example 68, 3-(3-methyl-1H-indol-1-yl)-N′-(quinolin-7-ylmethylene)-propanehydrazide], the pIC50 was less than 4.52.

Consider `COc1ccc(/C=N/NC(=O)CCn2cc(CN(C)C)c3c(Cl)cccc32)cc1OC` [Example 47, 3-(4-Chloro-3-((dimethylamino)methyl)-1H-indol-1-yl)-N′-(3,4-dimethoxybenzylidene)propanehydrazide], for which the pIC50 was 5.82.

Regarding `Cc1cnc2ccc(/C=N/NC(=O)CCn3cc(C)c4ccccc43)cc2c1` [Example 61, 3-(3-methyl-1H-indol-1-yl)-N′-((3-methylquinolin-6-yl)methylene)-propanehydrazide], the pIC50 is 6.68.

As to `COc1ccc(/C=N/NC(=O)[C@@H]2C[C@H]2c2cccc(C)n2)cc1OC` (relative stereo) [Example 37, trans-N′-(3,4-Dimethoxybenzylidene)-2-(6-methylpyridin-2-yl)cyclopropanecarbohydrazide], the pIC50 was 5.49.

In the case of `COc1ccc(/C=N/NC(=O)CSc2cccc(CO)c2)cc1OC` [Example 67, N′-(3,4-dimethoxybenzylidene)-2-(3-(hydroxymethyl)phenylthio)-acetohydrazide], the negative-log IC50 (pIC50) was less than 4.52.

Consider `COc1ccc([C@@H]2C[C@H]2C(=O)N/N=C/c2cc(C)c3ncccc3c2)cn1` (relative stereo) [Example 41, trans-2-(6-Methoxypyridin-3-yl)-N′-((8-methylquinolin-6-yl)methylene)cyclopropanecarbohydrazide], for which the pIC50 was 5.30.

Consider `Cc1cc(C=NNC(=O)C2CC2c2ccccc2)cc2cccnc12` (single isomer, unassigned) [11 (E1), trans-N′-((8-Methylquinolin-6-yl)methylene)-2-phenylcyclopropanecarbohydrazide, E1 enantiomer], for which the pIC50 was less than 5.00.

Turning to `COc1ccc(/C=N/NC(=O)NCCc2ccc(Cl)cc2)cc1OC` [Example 5, N-(4-Chlorophenethyl)-2-(3,4-dimethoxybenzylidene)hydrazinecarboxamide], the pIC50 is 7.29.

On to `COc1cccc(CCC(=O)N/N=C/c2cc(C)c3ncccc3c2)n1` [Example 26, 3-(6-Methoxypyridin-2-yl)-N′-((8-methylquinolin-6-yl)methylene)propanehydrazide], for which the negative-log IC50 (pIC50) was 5.70.

Take `O=C(N/N=C/c1cc(Cl)c2ncccc2c1)[C@@H]1C[C@H]1c1ccccc1` (relative stereo) [Example 25, trans-N′-((8-Chloroquinolin-6-yl)methylene)-2-phenylcyclopropanecarbohydrazide]: the negative-log IC50 (pIC50) was 6.47.

In the case of `COc1cc(/C=N/NC(=O)C2CC2c2cccc(Cl)c2)cc2cccnc12` (stereo not drawn) [Example 30, trans-2-(3-Chlorophenyl)-N′-((8-methoxyquinolin-6-yl)methylene)cyclopropanecarbohydrazide], the pIC50 was 7.35.

With `COc1ccc(/C=N/NC(=O)CCc2cnc3ccccc3c2)cc1OC` [Example 39, N′-(3,4-dimethoxybenzylidene)-3-(quinolin-3-yl)propanehydrazide], the negative logarithm of the IC50 (pIC50) was 6.09.

For `COc1cnc(/C=N/NC(=O)C(C)Sc2cccc(Cl)c2)cc1OC` (stereo not drawn) [Example 53, 2-(3-Chlorophenylthio)-N′-((4,5-dimethoxypyridin-2-yl)methylene)propanehydrazide], the negative logarithm of the IC50 (pIC50) was less than 4.52.

On to `O=C(N/N=C/c1ccc2ncccc2n1)[C@@H]1C[C@H]1c1cccc(Cl)c1` (relative stereo) [Example 31, trans-N′-((1,5-Naphthyridin-2-yl)methylene)-2-(3-chlorophenyl)cyclopropanecarbohydrazide], for which the negative-log IC50 (pIC50) was approximately 4.30.

Turning to `COc1ccc(/C=N/NC(=O)CCn2cc(Cl)c3c(C)cccc32)cc1OC` [Example 49, 3-(3-Chloro-4-methyl-1H-indol-1-yl)-N′-(3,4-dimethoxybenzylidene)propanehydrazide], the pIC50 is 8.89.

Consider `COc1cc(/C=N/NC(=O)[C@@H]2C[C@H]2c2ccccc2)cc2cccnc12` (relative stereo) [Example 22, trans-N′-((8-Methoxyquinolin-6-yl)methylene)-2-phenylcyclopropanecarbohydrazide], for which the negative-log IC50 (pIC50) was 7.05.

Regarding `COc1ccc(/C=N/NC(=O)C(C)S(=O)(=O)c2cccc(Cl)c2)cc1OC` (stereo not drawn) [Example 51, 2-(3-Chlorophenylsulfonyl)-N′-(3,4-dimethoxybenzylidene)propanehydrazide], the negative-log IC50 (pIC50) was 5.77.

In the case of `COc1cc(/C=N/NC(=O)C2CC2c2ccccc2)ccc1OCc1cccnc1` (stereo not drawn) [Example 20, trans-N′-(3-Methoxy-4-(pyridin-3-ylmethoxy)benzylidene)-2-phenylcyclopropanecarbohydrazide], the pIC50 was 5.80.

For the compound `COc1cc(/C=N/NC(=O)CCn2cc(C)c3c(C)cccc32)cc2cccnc12` [Example 27, 3-(3,4-Dimethyl-1H-indol-1-yl)-N′-((8-methoxyquinolin-6-yl)methylene)propanehydrazide], the negative logarithm of the IC50 (pIC50) was 8.85.
